Results as given in article PMC11217349, “Development of Nurr1 agonists from amodiaquine by scaffold hopping and fragment growing” (Communications Chemistry, 2024).
Where “and” joins values, the source holds several entries; their conditions need not be identical. Identical values can stand only once.

Assays:
[1] = tested on: HBEC-5i human brain endothelial cells; test: In vitro blood-brain-barrier model; assay type: in vitro ADME; details: HBEC-5i trans-well, 10 µM, 60 min
Description: Permeation of test compounds through a human brain endothelial cell barrier was evaluated using the Corning Costar 3470 Transwell Plate system (0.4 μm pore diameter with 6.5 mm inserts) and HBEC-5i cells (ATCC, CRL-3245). Filter inserts were coated one day before seeding with 50 μL 0.01% rat-tail collagen type I ([…], Sigma-Aldrich) in PBS. 60,000 HBEC-5i cells in 100 μL HBEC-5i-Medium (DMEM/F12 with 10% FCS and 40 μg/mL ECGS) were seeded after aspiration of the coating-supernatant in each insert with 600 μL HBEC-5i-Medium in each receiver well. After 24 h incubation at 37 °C with 5% CO2, the medium was exchanged to 600 μL T98G cell supernatant in receiver wells and 100 μL fresh HBEC-5i-Medium in inserts. The medium exchange was repeated every second day. On day 7 after seeding, the medium in the receiver wells was replaced by 600 μL Hank's balanced salt solution (HBSS) containing 10 mM HEPES and 0.1% DMSO and 100 μL test compound mixtures (antipyrine and test compound; each at 10 μM) in HBSS containing 10 mM HEPES and 0.1% DMSO were added to inserts. After 60 min incubation, 100 μL samples were taken from the receiver wells and diluted in 400 μL (75%/25% A/B; A=Formic acid 0.1% in water; B = Acetonitrile). Test compound concentrations in the samples were determined by LC-MS/MS on an API-3200-QTrap (Sciex) equipped with an Agilent Technologies 1100 series setup including a binary pump […]), and a Shimadzu […] autosampler under the control of Analyst 1.6 (Sciex). […] B) for 6 min going to (50%:50%) after 8 min. 5 μL of aspirated supernatant diluted in mobile phase starting conditions was loaded onto the column, separated at a flow rate of 400 μL/min, and quantified per Area of MRM (multiple reaction monitoring).

Microsomal stability = assay type: in vitro ADME, rat; details: male, Sprague-Dawley, pH 7.4; rat liver microsomes, 10 µM, LCMS
Description: To determine microsomal stability, test compounds (10 μM) were incubated in 100 mM potassium phosphate buffer at pH 7.4 (total volume of 100 µL) containing 0.5 mg/mL male rat liver microsomes (Sprague-Dawley, no. M9066, Merck KGaA, Darmstadt) and 1 mM NADPH for 0, 15, 30, or 60 min. At the end of the incubation time, microsomal activity was terminated by the addition of 500 µL MeCN and subsequent centrifugation at 1700 g for 5 min. A reaction mixture containing heat-inactivated microsomes (95 °C, 10 min) was prepared as a control for each compound. 5 µL supernatant of each sample was analyzed and the remaining concentrations of the respective test compounds at each time point were determined by LC-MS/MS on an API-3200-QTrap (Sciex) with an Agilent Technologies 1100 series setup including a binary pump (G1311A), a degasser (G1322A), and a Shimadzu SIL 20 A HT autosampler under the control of Analyst 1.6 (Sciex). A XBridge BEH C18 (3.5 µm, 150 mm×3 mm, Waters, protected with a 0.5 µm frit) stationary phase was used in combination with a gradient method starting with 0.1% formic acid in water (A) and MeCN (B) as mobile phase (A:B = 80:20) for 6 min going to A: B = 50:50 after 8 min. 5 µL of supernatant diluted in mobile phase starting conditions was loaded onto the column, separated at a flow rate of 400 µL/min, and detected and quantified per Area of MRM (multiple reaction monitoring) with the following transitions: m/z 381.797/145.000 (34); m/z 395.125/158.200 (36); m/z 409.822/131.000 (41); m/z 407.838/171.100 (42).

[2] = target: T1, human Nurr1 (hinge region and ligand binding domain) (Homo sapiens, UniProt P43354); test: Gal4-Nurr1 hybrid reporter gene assay; assay type: cell-based; details: mean ± SD, n ≥ 3; for EC50: Gal4-Nurr1 hybrid reporter, HEK293T, read-out: EC50(Nurr1); for max. activation: maximum effect vs. 0.1% DMSO control
T1 construct: expressed in transfected cells; host or cells: HEK293T
Description: Nurr1 modulation was determined in a Gal4 hybrid reporter gene assay in HEK293T cells (German Collection of Microorganisms and Cell Culture GmbH, DSMZ) using pFR-Luc (Stratagene, La Jolla, CA, USA; reporter), pRL-SV40 (Promega, Madison, WI, USA; internal control) and pFA-CMV-hNurr1-LBD[14], coding for the hinge region and ligand binding domain of the canonical isoform of human Nurr1. […] After 24 h, the medium was changed to Opti-MEM without supplements, and cells were transiently transfected using Lipofectamine LTX reagent (Invitrogen, Carlsbad, CA, USA) according to the manufacturer’s protocol. Five hours after transfection, cells were incubated with the test compounds in Opti-MEM supplemented with penicillin (100 U/mL), streptomycin (100 μg/mL), and 0.1% DMSO for 16 h before luciferase activity was measured using the Dual-Glo Luciferase Assay System (Promega) according to the manufacturer’s protocol on a Tecan Spark luminometer (Tecan Deutschland GmbH, Crailsheim, Germany). Firefly luminescence was divided by Renilla luminescence and multiplied by 1000 resulting in relative light units (RLU) to normalize for transfection efficiency and cell growth. Fold activation was obtained by dividing the mean RLU of the test compound by the mean RLU of the untreated control. All samples were tested in at least three biologically independent experiments in duplicates. For dose-response curve fitting and calculation of EC50 values, the equation “[Agonist] vs. response -- Variable slope (four parameters)” was used in GraphPad Prism (version 7.00, GraphPad Software, La Jolla, CA, USA). Selectivity profiling was performed with identical procedures using pFA-CMV-Nur77-LBD[14], pFA-CMV-NOR-1-LBD[14], pFA-CMV-THRα-LBD[51], pFA-CMV-RARα-LBD[52], pFA-CMV-PPARα-LBD[53], pFA-CMV-PPARγ-LBD[53], pFA-CMV-PPARδ-LBD[53], pFA-CMV-LXRα-LBD[54], pFA-CMV-FXR-LBD[55] and pFA-CMV-hRXRα-LBD[56].

[3] = Parallel artificial membrane permeability assay (PAMPA); assay type: in vitro ADME; details: 500 µM donor, pH 7.4, 18 h
Description: Passive lipid membrane diffusion of test compounds was determined using Merck Millipore MultiScreen Filter Plates (0.45 μm pore diameter, hydrophobic PVDF). The filter inserts were coated with 1% L-α-phosphatidylcholine (Fluka Analytical) in n-dodecan. The test compounds were then added to the donor compartment at a final concentration of 500 µM in a phosphate buffer pH 7.4 containing 5% DMSO with a total volume of 150 µL. The acceptor compartment was filled with 300 µL PBS containing 5% DMSO. Additionally, three equilibrium samples were prepared by directly adding the donor solution to the acceptor compartment for the calculation of log Pe values. The filter plates were incubated for 18 h before the test compound concentrations in the acceptor compartments and in the equilibrium, samples were determined by UV absorbance at 320 nm (34), 360 nm (36), 310 nm (41), or 315 nm (42) with external calibration in a 96 well quartz plate on a SpectraMax M2e microplate reader (Molecular Devices). logPe values were calculated according to the formula published by Sugano and colleagues.

Nurr1 = tested on: Nurr1; design: method as in PMID 33289551; details: independent evaluation; cited from earlier work

T1 sequence (P43354 360-595 limits assumed): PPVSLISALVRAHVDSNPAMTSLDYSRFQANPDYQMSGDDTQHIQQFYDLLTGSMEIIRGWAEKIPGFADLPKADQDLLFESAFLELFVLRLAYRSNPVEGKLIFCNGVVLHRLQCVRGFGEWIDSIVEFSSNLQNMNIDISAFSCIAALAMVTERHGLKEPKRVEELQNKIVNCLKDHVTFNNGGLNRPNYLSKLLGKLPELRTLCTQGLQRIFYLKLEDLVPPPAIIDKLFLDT

Compound | half-life at 10 µM (Microsomal stability) [min] | EC50 [2] [nM] | max. activation [2] [fold] | logPe (BBB) [1] | logPe (PAMPA) [3] | binding to Nurr1 (Nurr1)
Cc1cc(=O)n(-c2ccccc2)n1C [antipyrine, reference compound] | – | – | – | -4.6402 and -4.7739 and -4.62 and -4.578 and -4.647 | – | –
O=C(Nc1ccccc1)c1cn2cc(-c3ccccn3)ccc2n1 [SR24237] | – | – | – | – | – | no evidence for binding

More lines, main results first:

half-life at 10 µM (Microsomal stability) [min] | EC50 [2] [nM] | max. activation [2] [fold] | Compound | logPe (BBB) [1] | logPe (PAMPA) [3] | binding to Nurr1 (Nurr1)
18 ± 2 | 160 ± 60 | 1.7 ± 0.1 | COc1ccc(-c2ccc(C(=O)Nc3c(C)nc4c(Cl)cccn34)o2)cc1 [Compound 34] | – | -5.478 and -5.491 and -5.489 and -5.4212 and -5.4577 | –
78 ± 7 | 120 ± 60 | 1.5 ± 0.2 | Cc1nc2c(Cl)cccn2c1NC(=O)c1ccc(-c2ccc(OC3CC3)cc2)o1 [Compound 42, N-(8-Chloro-2-methylimidazo[1,2-a]pyridin-3-yl)-5-(4-cyclopropoxyphenyl)furan-2-carboxamide] | -5.049 and -5.059 and -4.946 and -5.046 and -4.96 and -4.965 | -5.857 and -5.822 and -5.789 and -5.846 and -5.806 | –
42 ± 5 | 120 ± 30 | 2.1 ± 0.2 | Cc1nc2c(Cl)cccn2c1NC(=O)c1ccc(-c2ccc(OC(C)C)cc2)o1 [Compound 41] | – | -5.684 and -5.708 and -5.674 and -5.7032 and -5.723 and -5.7183 | –
